Patent US8198405B2, “Stabilized alpha helical peptides and uses thereof” (Dana-Farber Cancer Institute, Inc., priority 2003, dated 2012)
Where a SMILES comes first, the peptide text is derived from it. [ ]: non-standard residue; d: D form. The star is where a group is joined. FITC = O=C1OC2(c3ccc(O)cc3Oc3cc(O)ccc32)c2ccc(NC(=S)*)cc21; Nle = CCCC[C@H](N)C(=O)O; βAla = NCCC(=O)O

Assays:
[1] = test system: Jurkat T-cell leukemia cells; assay: Cellular uptake of FITC-peptides by FACS
Excerpt: BID helix 6, a cell permeable and membrane perturbing peptide, was used as a positive control for FITC-labeling in this experiment.

[2] = test system: Jurkat T-cell leukemia cells; assay: Confocal microscopy, intracellular localization; type: cell-based; conditions: fixed cells
Method: Confocal microscopy experiments were employed in order to determine the intracellular localization of SAHB3BIDA. Jurkat T-cell leukemia cells were incubated with FITC-labeled compounds as described above or with serum replacement at 4 hours followed by additional 16 hours incubation at 37° C., and after washing twice with PBS, were cytospun at 600 RPM for 5 minutes onto superfrost plus glass slides (Fisher). Cells were then fixed in 4% paraformaldehyde, washed with PBS, incubated with TO-PRO-3 iodide (100 nM) (Molecular Probes) to counterstain nuclei, treated with Vectashield mounting medium (Vector), and then imaged by confocal microscopy (BioRad 1024). For double labeling experiments, fixed cells were additionally incubated with primary antibody to TOM20, and rhodamine-conjugated secondary antibody prior to TOPRO-3 counterstaining. […] Treated Jurkats were washed twice and then resuspended in PBS and wet mount preparations analyzed with a BioRad 1024 (Beth Israel/Deaconess Center for Advanced Microscopy) or Zeiss LSM510 laser scanning confocal microscope (Children's Hospital Boston Imaging Core).

[3] = 10 mg/kg FITC-conjugated peptide
Method: Levels of intact FITC-compound in 25 μL of fresh serum were then measured.

[4] = test system: REH, MV4; 11, and SEMK2 cell lines; assay: Apoptosis induction assays; type: cell-based
BAX = target: T1, BAX (Homo sapiens, UniProt Q07812); assay: Fluorescence polarization direct binding assay; conditions: full-length BAX
T1 construct: Full-length BAX protein was prepared as previously described (Suzuki et al, Cell, 103:645); made in house

BCL-2 = target: T2, BCL-2 (Homo sapiens, UniProt P10415); assay: Fluorescence polarization direct binding assay
T2 construct: containing the plasmid encoding C-terminal deleted GST-BCL-2; made in house; host or cells: Escherichia coli BL21 (DE3)

[5] = test system: mouse liver mitochondria isolated from Bak-/- mice; assay: Cytochrome c release assay, Bak-/- mitochondria (BAK-independent release); type: biochemical; conditions: 1 μM, 40 minutes
Method: (§1) In order to assess the biological activity of SAHB3BID compounds in vitro, cytochrome c release assays were performed using purified mouse liver mitochondria. Mitochondria (0.5 mg/mL) were incubated for 40 minutes with 1 μM and 100 nM of SAHB3BID compounds and then supernatants and mitochondrial fractions isolated and subjected to cytochrome c ELISA assay. Background cytochrome c release (10-15%) was subtracted from total release for each sample, and the percent actual cytochrome c release was determined (FIG. 12). […] In each case, except for the double cross-linked SAHB3BIDE (which may lack critical amino acids for biological activity or, in this case, be overly constrained by the dual cross-links), there is approximately a doubling of cytochrome c release in response to 1 μM SAHB3BID compounds compared to the unmodified peptide (FIG. 12a). […] BID mutants with defective BH3 domains can promote BAK-independent cytochrome c mobilization (Scorrano et al, Dev Cell, 2:55), and the highly hydrophobic BID helix 6 has been implicated in this activity (L. Scorrano, S. J. Korsmeyer, unpublished results).
Similar to the above experiment, mouse liver mitochondria from wild-type and Bak−/− mice were exposed to the compounds at various concentrations and assayed for cytochrome c release at 10 and 40 minute intervals. […]

trypsin = target: T3, trypsin (Bos taurus, UniProt P00760); assay: In vitro trypsin proteolysis (trypsin agarose); type: in vitro ADME; conditions: first order rate constant, triplicate
T3 sequence (P00760 24-246): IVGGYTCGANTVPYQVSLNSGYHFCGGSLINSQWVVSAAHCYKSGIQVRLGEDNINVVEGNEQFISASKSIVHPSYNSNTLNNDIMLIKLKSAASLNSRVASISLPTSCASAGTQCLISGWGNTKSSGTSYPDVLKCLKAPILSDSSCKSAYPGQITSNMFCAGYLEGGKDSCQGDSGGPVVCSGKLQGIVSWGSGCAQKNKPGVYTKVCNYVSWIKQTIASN
Method: The amide bond of the peptide backbone is susceptible to hydrolysis by proteases, thereby rendering peptidic compounds vulnerable to rapid degradation in vivo. Peptide helix formation, however, buries the amide backbone and therefore shields it from proteolytic cleavage. […] SAHB3BIDA and unmodified peptide were incubated with trypsin agarose and the reactions quenched at various time points by centrifugation and subsequent HPLC injection to quantitate the residual substrate by ultraviolet absorption at 280 nm. […] Reactions were quenched by tabletop centrifugation at high speed; remaining substrate in the isolated supernatant was quantified by HPLC-based peak detection at 220 nm.

BCL-XL = assay: 15N/1H HSQC NMR of 15N-labeled BCL-XL; type: binding; conditions: 1:1 complex, 0.1 mM
Method: Briefly, Escherichia coli BL21 (DE3) containing the plasmid encoding C-terminal deleted BCL-XL were cultured in M9-minimal medium containing ^15NH4Cl (Cambridge Isotope Laboratories) to generate uniformly ^15N-labeled protein. Recombinant proteins were isolated from bacteria. […] Two dimensional ^15N/^1H heteronuclear single-quantum spectra were recorded for the two complexes and analyzed for changes in resonance upon ligand binding.

GST-BCL-2 = target: T4, GST-BCL-2 (Homo sapiens, UniProt P10415); assay: Fluorescence polarization competitive binding (displacement of FITC-BID BH3)
T4 construct: containing the plasmid encoding C-terminal deleted GST-BCL-2; made in house; host or cells: Escherichia coli BL21 (DE3)

[6] = test system: purified mouse liver mitochondria; assay: Cytochrome c release assay (ELISA), wild-type mitochondria; type: biochemical
Method: as §1
Similar to the above experiment, mouse liver mitochondria from wild-type and Bak−/− mice were exposed to the compounds at various concentrations and assayed for cytochrome c release at 10 and 40 minute intervals. […] Thus, SAHB3BIDA and B display a 10-25 fold enhancement in cytochrome c release activity at the 40 minute time point.

SEMK2-M1 leukemia cells = assay: SEMK2 leukemia in vivo, total body luminescence
[7] = test system: Jurkat cells engineered to overexpress BCL-2; assay: Apoptosis by annexin V flow cytometry; type: cell-based
Method: Indeed, the pro-apoptotic effect of 10 uM SAHB3BIDA and B on “wild-type” Jurkats was abolished in the BCL-2 overexpressing cells. […] The observed pro-apoptotic effects are selectively abolished by gly to glu mutation of SAHB3BIDA and cellular overexpression of BCL-2, findings which underscore that SAHB3BID compounds function via the defined mitochondrial apoptosis pathway.

T4 sequence (P10415 1-218 limits assumed): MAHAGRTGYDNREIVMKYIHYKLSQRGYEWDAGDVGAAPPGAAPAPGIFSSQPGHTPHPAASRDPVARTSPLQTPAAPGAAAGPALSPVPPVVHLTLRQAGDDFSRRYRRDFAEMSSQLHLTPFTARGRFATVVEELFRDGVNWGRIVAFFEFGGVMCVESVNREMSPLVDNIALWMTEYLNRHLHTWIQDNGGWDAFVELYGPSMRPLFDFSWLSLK
T2 sequence (P10415 1-218 limits assumed): as above
T1 sequence (Q07812 whole entry): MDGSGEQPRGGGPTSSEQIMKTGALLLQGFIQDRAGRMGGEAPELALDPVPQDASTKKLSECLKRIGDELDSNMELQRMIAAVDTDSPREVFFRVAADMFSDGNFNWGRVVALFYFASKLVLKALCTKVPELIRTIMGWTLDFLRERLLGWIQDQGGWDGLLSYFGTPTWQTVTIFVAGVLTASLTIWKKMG

## CCCC[C@H](NC(=O)[C@H](CO)NC(=O)[C@H](CC(=O)O)NC(=O)CNC(=O)[C@@H](NC(=O)[C@H](CCC(N)=O)NC(=O)[C@H](C)NC(=O)[C@H](CC(C)C)NC(=O)[C@H](Cc1c[nH]cn1)NC(=O)[C@H](CCCNC(=N)N)NC(=O)[C@H](C)NC(=O)[C@@H](NC(=O)[C@H](CC(N)=O)NC(=O)[C@H](CCCNC(=N)N)NC(=O)[C@@H](NC(=O)[C@@H](NC(=O)[C@H](CC(=O)O)NC(=O)[C@H](CCC(=O)O)NC(=O)CCNC(=S)Nc1ccc2c(c1)C(=O)OC21c2ccc(O)cc2Oc2cc(O)ccc21)[C@@H](C)CC)[C@@H](C)CC)[C@@H](C)CC)C(C)C)C(=O)N[C@@H](CC(=O)O)C(=O)N[C@@H](CCCNC(=N)N)C(=O)N[C@@H](CO)C(=O)N[C@H](C(=O)N[C@@H](Cc1c[nH]c2ccccc12)C(N)=O)[C@@H](C)CC [FITC-BID BH3] ({FITC-βAla}-EDIIRNIARHLAQVGDS[Nle]DRSIW-NH2)
[1]
  FITC labeling of cells at 4° C. and 37° C.: did not label the cells at either temperature
  FITC labeling with or without sodium azide and 2-deoxyglucose: no labeling for either condition
[2]
  intracellular distribution of fluorescence: no cellular labeling

## CCCC[C@H](NC(=O)[C@H](CO)NC(=O)[C@H](CC(=O)O)NC(=O)CNC(=O)[C@@H](NC(=O)[C@H](CCC(N)=O)NC(=O)[C@H](C)NC(=O)[C@H](CC(C)C)NC(=O)[C@H](Cc1c[nH]cn1)NC(=O)[C@H](CCCNC(=N)N)NC(=O)[C@H](C)NC(=O)[C@@H](NC(=O)[C@H](CC(N)=O)NC(=O)[C@H](CCCNC(=N)N)NC(=O)[C@@H](NC(=O)[C@@H](NC(=O)[C@H](CC(=O)O)NC(=O)[C@@H](N)CCC(=O)O)[C@@H](C)CC)[C@@H](C)CC)[C@@H](C)CC)C(C)C)C(=O)N[C@@H](CC(=O)O)C(=O)N[C@@H](CCCNC(=N)N)C(=O)N[C@@H](CO)C(=O)N[C@H](C(=O)N[C@@H](Cc1c[nH]c2ccccc12)C(N)=O)[C@@H](C)CC [BID BH3, reference compound] (H-EDIIRNIARHLAQVGDS[Nle]DRSIW-NH2)
[3]; one hour after injection
  percent detectable in serum: 12%

## CCCC[C@H](NC(=O)[C@]1(C)CCCC=CCCC[C@](C)(NC(=O)[C@H](C)NC(=O)[C@H](CC(C)C)NC(=O)[C@H](Cc2c[nH]cn2)NC(=O)[C@H](CCCNC(=N)N)NC(=O)[C@H](C)NC(=O)[C@@H](NC(=O)[C@H](CC(N)=O)NC(=O)[C@H](CCCNC(=N)N)NC(=O)[C@@H](NC(=O)[C@@H](NC(=O)[C@H](CC(=O)O)NC(=O)[C@H](CCC(=O)O)NC(C)=O)[C@@H](C)CC)[C@@H](C)CC)[C@@H](C)CC)C(=O)N[C@@H](C(C)C)C(=O)NCC(=O)N[C@@H](CC(=O)O)C(=O)N1)C(=O)N[C@@H](CC(=O)O)C(=O)N[C@@H](CCCNC(=N)N)C(=O)N[C@@H](CO)C(=O)N[C@H](C(=O)N[C@@H](Cc1c[nH]c2ccccc12)C(N)=O)[C@@H](C)CC [SAHB3BIDA]
REH
  IC50: 10200 nM
[4]
  apoptosis induction, in words: specific apoptosis induction
BAX
  BAX binding, in words: measurable binding
SEMK2
  IC50: 1600 nM
BCL-2
  enhancement in BCL-2 binding affinity compared to unmodified BID BH3 peptide: 6 fold
BCL-2; fluorescinated compounds 25 nM, GST-BCL2 25 nM-1000 nM (FIG. 11d)
  Kd: 38.8 nM
[3]; 22 hours post-injection
  percent of the input still measurable in serum: 13%
RS4;11
  IC50: 2700 nM
[5]
  BAK-independent cytochrome c release, in words: BAK-independent cytochrome c release is observed
MV4;11
  IC50: 4700 nM
trypsin
  enhancement in trypsin resistance compared to the unmodified peptide: 3.5 fold
BCL-XL
  BCL-XL binding site, in words: binds to the defined hydrophobic pocket of BCL-XL
GST-BCL-2
  increase in displacement potency compared to unmodified BID BH3 peptide: more than 13 fold
GST-BCL-2; competition with FITC-labeled unmodified BID BH3
  GST-BCL2 binding, in words: highest affinity binding
GST-BCL-2; read-out: IC50 for displacement of prebound FITC-BID BH3 from BCL-2
  IC50: 62 nM
[6]; 100 nM, 40 minutes
  cytochrome c release at ten-fold lower dosing, in words: retain selective BAK-dependent cytochrome c release activity
[6]; 10 minutes
  cytochrome c release at 10 minutes, in words: significant cytochrome c release
[6]; 40 minutes
  EC50: 310 nM
Jurkat
  IC50: 2200 nM
SEMK2-M1 leukemia cells; 10 mg/kg intravenously on days 1, 2, 3, 5, 6, measured days 4 and 7
  tumor burden (total body luminescence): leukemic suppression
SEMK2-M1 leukemia cells; 10 mg/kg or 5 mg/kg intravenously on days 1, 2, 3, 6, 7, measured days 4 and 8
  tumor burden (total body luminescence): dose-dependent manner
[7]; 10 uM
  pro-apoptotic effect in BCL-2 overexpressing cells: abolished
[7]; dose response (FIG. 24)
  overcoming BCL-2 protection by dose escalation: can be overcome by dose escalation

B1: myristolated BID protein: maximally activated myristolated BID protein (protein, UniProt P55957 1-195, looked up)
BH3-interacting domain death …: MDCEVNNGSSLRDECITNLLVFGFLQSCSDNSFRRELDALGHELPVLAPQWEGYDELQTDGNRSSHSRLGRIEADSESQEDIIRNIARHLAQVGDSMDRSIPPGLVNGLALQLRNTSRSEEDRNRDLATALEQLLQAYPRDMEKEKTMLVLALLLAKKVASHTPSLLRDVFHTTVNFINQNLRTYVRSLARNGMD
modifications: myristoylated
[6]; 30 nM
  cytochrome c released: approximately 65%
